The results in this text go back to US20250288645A1, “USE OF GsMTx4 AND GsMTx4 CONJUGATES TO IMPROVE RECOVERY FROM JOINT INJURY” (priority 2023, published 2025).

“Also recorded” adds a separate entry of the source. No end group written: not given here.

This experiment deals with C57BL/6 mice. In words: Bilateral ACL-injury mouse model: knee histology, OARSI score. Type of experiment: in vivo. From the text:
Some of the studies reported below involved a murine model of animals which were subjected to trauma by injuring an ACL (as an exemplar of injury to any of the four knee ligaments). Without wishing to be bound by theory, it is believed that injury to the ACL changes the mechanical loading on the joint, promoting imbalanced metabolism in articular cartilage, and promoting the development of post-traumatic OA, or “PTOA.” Animals were divided into four cohorts: the first group, the controls, were not subjected to trauma, the second group underwent bilateral ACL injury, but no further treatment, the third group underwent bilateral ACL injury, and was then administered saline solution at days 3, 10 and 17 post-injury, and the fourth group underwent bilateral ACL injury, and was then administered GsMTx4 peptide at days 3, 10 and 17 post-injury. The animals were evaluated by gait analysis, a cell vulnerability assay, and a histological evaluation/immunofluorescence assay. In one aspect, the assays compared the expression of Piezo1 and Piezo2 in chondrocytes from injured joints, from uninjured controls, and from injured joints injured and then treated with GsMTx4 and from joints that were injured and then treated only with saline solution. The study also looked at calcitonin gene-related peptide (“CGRP”)-containing (“CGRP^+”) nerve endings. CGRP^+ nerves have been identified as principal coordinators of thermal and mechanical sensitivity in various pain models. See, e.g., Powell, et al., Nat Commun 12, 5812 (2021); doi.org/10.1038/s41467-021-26100-6.
Experiments were performed in a non-invasive ACL-injury mouse model. […] Both male and female mice were used in the four groups and results were tracked by gender as well as by group.
Animals in the ACL-injury groups were provided with buprenorphine as an analgesic, placed under anesthesia by isoflurane inhalation, and had the injuries induced with a custom-built strain gauge-instrumented device by applying axial force along the femoral shaft until a force drop was felt and a distinct “pop” sound was heard. […]

Regarding “GsMTx4 (GCLEFWWKCNPNDDKCCRPKLKCSKLFKLCNFSF-NH2; ends and bridges not checked; listed as Grammostola spatulata)”, under “ACL-I mice, GsMTx4 at days 3, 10, 17 post-injury, 3 weeks post-ACL-I, versus saline-treated ACL-I mice”, the “OA severity (OARSI score)” value is given as “reduced OARSI score; also recorded: decreased OA degrees significantly”. For the same substance, the “combined OARSI score for the femur and the tibia (FIG. 2B)” value (bilateral ACL injury, subcutaneous injection, versus not treated or saline-treated animals) is “much lower OARSI score”. In addition, for the setting “bilateral ACL injury, versus saline-injected mouse (cartilage severely eroded and disrupted)”, the “cartilage on femur and tibia (histology, FIG. 2A)” value is “still a layer of cartilage almost all of the femur and tibial surface”.
